{"source": "paper PMC11966747", "about": "“Next Generation Risk Assessment of Acute Neurotoxicity from Organophosphate Exposures Using the In Vitro–In Silico Derived Dietary Comparator Ratio” (Environmental Science & Technology, 2025)", "key": {"erythrocyte AChE [1]": {"target": "T1, erythrocyte AChE (Homo sapiens, UniProt P22303)", "T1 sequence (P22303 32-617 isoform P22303-2 limits assumed)": "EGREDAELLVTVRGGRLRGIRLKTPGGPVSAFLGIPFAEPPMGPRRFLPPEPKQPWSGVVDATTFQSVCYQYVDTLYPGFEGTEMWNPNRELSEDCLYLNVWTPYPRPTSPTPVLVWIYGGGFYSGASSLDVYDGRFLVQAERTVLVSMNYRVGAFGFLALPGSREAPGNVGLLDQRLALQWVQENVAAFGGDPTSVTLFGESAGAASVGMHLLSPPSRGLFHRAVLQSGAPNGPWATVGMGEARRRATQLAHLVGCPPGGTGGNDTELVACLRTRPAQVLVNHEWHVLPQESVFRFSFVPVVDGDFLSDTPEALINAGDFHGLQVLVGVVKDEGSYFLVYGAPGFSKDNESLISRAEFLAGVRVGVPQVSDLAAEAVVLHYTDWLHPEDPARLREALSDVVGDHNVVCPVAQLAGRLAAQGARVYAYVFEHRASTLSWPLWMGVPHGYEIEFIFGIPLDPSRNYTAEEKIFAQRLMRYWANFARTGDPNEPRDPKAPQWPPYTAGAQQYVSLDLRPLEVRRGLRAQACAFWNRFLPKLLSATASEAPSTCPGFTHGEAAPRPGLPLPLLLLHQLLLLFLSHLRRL", "settings": "human, ref Table S2, cited from earlier work"}, "erythrocyte AChE [2]": {"target": "T1, erythrocyte AChE", "assay": "Exposure Activity Ratio (EAR) and Dietary Comparator Ratio (DCR) calculation", "parameters": "from tissue; host or cells: human whole peripheral blood (erythrocytes), K2EDTA anticoagulant", "settings": "human", "method": "The DCR value for an exposure scenario was calculated as the ratio of EARtest and EARcomparator (eq 1). The EARtest is scenario-specific and was defined with the IC50 of the tested organophosphate oxon for in vitro erythrocyte AChE inhibition and the PBK model-simulated CBmaxoxon at the defined exposure level (eq 2).\nThe DCR-based predictions were evaluated by comparing the obtained DCR results with actual knowledge of the adverse health effects reported for the respective exposure scenarios. Adverse effects cannot be ruled out for human exposure scenarios with a DCR result greater than 1, while exposure scenarios with a DCR result less than or equal to 1 are considered to raise no safety concern.[18]−[20] Once validated as an adequate predicting tool, the DCR approach was applied for evaluating the safety of exposure scenarios, for which no information on the resulting toxic outcomes was reported at the defined dose levels for humans."}, "[3]": {"settings": "QSAR-based prediction; ref Punt et al. 2022; Moerenhout et al. 2024; cited from earlier work"}}, "note": "Read-outs that look alike come from different tables or passages of the source.", "data": [{"smiles": "COP(=S)(OC)Oc1ccc([N+](=O)[O-])c(C)c1", "note": "[fenitrothion]", "values": [{"measurement": "reported or expected adverse health outcome", "setting": "erythrocyte AChE [1]; single oral 143 mg/kg BW, listed as Fenitrothion, 143 mg/kg", "value": "Yes"}, {"measurement": "reported or expected adverse health outcome", "setting": "erythrocyte AChE [1]; single oral 214 mg/kg BW, 214 mg/kg", "value": "positive"}, {"measurement": "reported or expected adverse health outcome", "setting": "erythrocyte AChE [1]; single oral 214 mg/kg BW, listed as Fenitrothion, 214 mg/kg", "value": "Yes"}, {"measurement": "reported or expected adverse health outcome", "setting": "erythrocyte AChE [1]; single oral 357 mg/kg BW, 357 mg/kg", "value": "positive"}, {"measurement": "reported or expected adverse health outcome", "setting": "erythrocyte AChE [1]; single oral 357 mg/kg BW, listed as Fenitrothion, 357 mg/kg", "value": "Yes"}, {"measurement": "reported or expected adverse health outcome", "setting": "erythrocyte AChE [1]; single oral 429 mg/kg BW, 429 mg/kg", "value": "positive"}, {"measurement": "reported or expected adverse health outcome", "setting": "erythrocyte AChE [1]; single oral 429 mg/kg BW, listed as Fenitrothion, 429 mg/kg", "value": "Yes"}, {"measurement": "reported or expected adverse health outcome", "setting": "erythrocyte AChE [1]; single oral 500 mg/kg BW, 500 mg/kg", "value": "positive"}, {"measurement": "reported or expected adverse health outcome", "setting": "erythrocyte AChE [1]; single oral 500 mg/kg BW, listed as Fenitrothion, 500 mg/kg", "value": "Yes"}, {"measurement": "reported or expected adverse health outcome", "setting": "erythrocyte AChE [1]; single oral 536 mg/kg BW, 536 mg/kg", "value": "positive"}, {"measurement": "reported or expected adverse health outcome", "setting": "erythrocyte AChE [1]; single oral 536 mg/kg BW, listed as Fenitrothion, 536 mg/kg", "value": "Yes"}, {"measurement": "reported or expected adverse health outcome", "setting": "erythrocyte AChE [1]; single oral 571 mg/kg BW, 571 mg/kg", "value": "positive"}, {"measurement": "reported or expected adverse health outcome", "setting": "erythrocyte AChE [1]; single oral 571 mg/kg BW, listed as Fenitrothion, 571 mg/kg", "value": "Yes"}, {"measurement": "reported or expected adverse health outcome", "setting": "erythrocyte AChE [1]; single oral 1714 mg/kg BW, 1714 mg/kg", "value": "positive"}, {"measurement": "reported or expected adverse health outcome", "setting": "erythrocyte AChE [1]; single oral 1714 mg/kg BW, listed as Fenitrothion, 1714 mg/kg", "value": "Yes"}, {"measurement": "reported or expected adverse health outcome", "setting": "erythrocyte AChE [1]; single oral 1786 mg/kg BW, 1786 mg/kg", "value": "positive"}, {"measurement": "reported or expected adverse health outcome", "setting": "erythrocyte AChE [1]; single oral 1786 mg/kg BW, listed as Fenitrothion, 1786 mg/kg", "value": "Yes"}, {"measurement": "calculated DCR value", "setting": "erythrocyte AChE [2]; single oral 0.042 mg/kg BW", "value": 0.17}, {"measurement": "calculated EARtest value", "setting": "erythrocyte AChE [2]; single oral 0.042 mg/kg BW", "value": "6.8 × 10^–3"}, {"measurement": "calculated DCR value", "setting": "erythrocyte AChE [2]; single oral 0.06 mg/kg BW", "value": 0.25}, {"measurement": "calculated EARtest value", "setting": "erythrocyte AChE [2]; single oral 0.06 mg/kg BW", "value": "9.7 × 10^–3"}, {"measurement": "calculated DCR value", "setting": "erythrocyte AChE [2]; single oral 0.083 mg/kg BW", "value": 0.34}, {"measurement": "calculated EARtest value", "setting": "erythrocyte AChE [2]; single oral 0.083 mg/kg BW", "value": 0.013}, {"measurement": "calculated DCR value", "setting": "erythrocyte AChE [2]; single oral 0.09 mg/kg BW", "value": 0.37}, {"measurement": "calculated EARtest value", "setting": "erythrocyte AChE [2]; single oral 0.09 mg/kg BW", "value": 0.015}, {"measurement": "calculated DCR value", "setting": "erythrocyte AChE [2]; single oral 0.17 mg/kg BW", "value": 0.70}, {"measurement": "calculated EARtest value", "setting": "erythrocyte AChE [2]; single oral 0.17 mg/kg BW", "value": 0.028}, {"measurement": "calculated DCR value", "setting": "erythrocyte AChE [2]; single oral 0.18 mg/kg BW", "value": 0.74}, {"measurement": "calculated EARtest value", "setting": "erythrocyte AChE [2]; single oral 0.18 mg/kg BW", "value": 0.029}, {"measurement": "calculated DCR value", "setting": "erythrocyte AChE [2]; single oral 0.25 mg/kg BW", "value": 1.0}, {"measurement": "calculated EARtest value", "setting": "erythrocyte AChE [2]; single oral 0.25 mg/kg BW", "value": 0.041}, {"measurement": "calculated DCR value", "setting": "erythrocyte AChE [2]; single oral 0.33 mg/kg BW", "value": 1.4}, {"measurement": "calculated EARtest value", "setting": "erythrocyte AChE [2]; single oral 0.33 mg/kg BW", "value": 0.054}, {"measurement": "calculated DCR value", "setting": "erythrocyte AChE [2]; single oral 0.36 mg/kg BW", "value": 1.5}, {"measurement": "calculated EARtest value", "setting": "erythrocyte AChE [2]; single oral 0.36 mg/kg BW", "value": 0.059}, {"measurement": "calculated DCR value", "setting": "erythrocyte AChE [2]; single oral 36 mg/kg BW", "value": 174}, {"measurement": "calculated EARtest value", "setting": "erythrocyte AChE [2]; single oral 36 mg/kg BW", "value": 6.89}, {"measurement": "calculated DCR value", "setting": "erythrocyte AChE [2]; single oral 71 mg/kg BW", "value": 346}, {"measurement": "calculated EARtest value", "setting": "erythrocyte AChE [2]; single oral 71 mg/kg BW", "value": 13.66}, {"measurement": "calculated DCR value", "setting": "erythrocyte AChE [2]; single oral 143 mg/kg BW", "value": 610}, {"measurement": "calculated EARtest value", "setting": "erythrocyte AChE [2]; single oral 143 mg/kg BW", "value": 24.10}, {"measurement": "calculated DCR value", "setting": "erythrocyte AChE [2]; single oral 214 mg/kg BW", "value": 811}, {"measurement": "calculated EARtest value", "setting": "erythrocyte AChE [2]; single oral 214 mg/kg BW", "value": 32.03}, {"measurement": "calculated DCR value", "setting": "erythrocyte AChE [2]; single oral 357 mg/kg BW", "value": 1189}, {"measurement": "calculated EARtest value", "setting": "erythrocyte AChE [2]; single oral 357 mg/kg BW", "value": 46.93}, {"measurement": "calculated DCR value", "setting": "erythrocyte AChE [2]; single oral 429 mg/kg BW", "value": 1364}, {"measurement": "calculated EARtest value", "setting": "erythrocyte AChE [2]; single oral 429 mg/kg BW", "value": 53.86}, {"measurement": "calculated DCR value", "setting": "erythrocyte AChE [2]; single oral 500 mg/kg BW", "value": 1526}, {"measurement": "calculated EARtest value", "setting": "erythrocyte AChE [2]; single oral 500 mg/kg BW", "value": 60.24}, {"measurement": "calculated DCR value", "setting": "erythrocyte AChE [2]; single oral 536 mg/kg BW", "value": 1604}, {"measurement": "calculated EARtest value", "setting": "erythrocyte AChE [2]; single oral 536 mg/kg BW", "value": 63.31}, {"measurement": "calculated DCR value", "setting": "erythrocyte AChE [2]; single oral 571 mg/kg BW", "value": 1677}, {"measurement": "calculated EARtest value", "setting": "erythrocyte AChE [2]; single oral 571 mg/kg BW", "value": 66.18}, {"measurement": "calculated DCR value", "setting": "erythrocyte AChE [2]; single oral 1714 mg/kg BW", "value": 3037}, {"measurement": "calculated EARtest value", "setting": "erythrocyte AChE [2]; single oral 1714 mg/kg BW", "value": 119.90}, {"measurement": "calculated DCR value", "setting": "erythrocyte AChE [2]; single oral 1786 mg/kg BW", "value": 3078}, {"measurement": "calculated EARtest value", "setting": "erythrocyte AChE [2]; single oral 1786 mg/kg BW", "value": 121.49}, {"measurement": "Oral absorption rate constant", "setting": "[3]", "value": 0.58, "unit": "h⁻¹"}]}]}
